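Following 48 hours of exposure in 96-well plates, responses at five concentrations were used to interpolate endpoints linearly. GI50 is the concentration that inhibits growth by half. Definition used: TGI = concentration required for complete inhibition of growth.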
Legend:
Assay in all cases: NCI-60 cell line screen, 48 h
SF-539 CNS = system: SF-539 CNS
786-0 renal = system: 786-0 renal
SNB-75 CNS = system: SNB-75 CNS
RXF 393 renal = system: RXF 393 renal
NCI-H226 lung = system: NCI-H226 lung
HT29 colon = system: HT29 colon
MCF7 breast = system: MCF7 breast
SR leukemia = system: SR leukemia
SF-295 CNS = system: SF-295 CNS
MDA-MB-435 = system: MDA-MB-435
COLO 205 colon = system: COLO 205 colon
OVCAR-5 ovarian = system: OVCAR-5 ovarian
OVCAR-3 ovarian = system: OVCAR-3 ovarian
HOP-92 NSCLC = system: HOP-92 NSCLC
NCI/ADR-RES ovarian = system: NCI/ADR-RES ovarian
HL-60(TB) leukemia = system: HL-60(TB) leukemia
NCI-H522 lung = system: NCI-H522 lung
HS 578T breast = system: HS 578T breast
HCT-15 colon = system: HCT-15 colon
SF-268 CNS = system: SF-268 CNS
MDA-MB-231 breast = system: MDA-MB-231 breast
SK-OV-3 ovarian = system: SK-OV-3 ovarian
U251 CNS = system: U251 CNS
BT-549 breast = system: BT-549 breast
PC-3 prostate = system: PC-3 prostate
DU-145 prostate = system: DU-145 prostate
CAKI-1 renal = system: CAKI-1 renal
NCI-H460 lung = system: NCI-H460 lung
OVCAR-8 ovarian = system: OVCAR-8 ovarian
OVCAR-4 ovarian = system: OVCAR-4 ovarian
EKVX NSCLC = system: EKVX NSCLC
A498 renal = system: A498 renal
MALME-3M melanoma = system: MALME-3M melanoma
SN12C renal = system: SN12C renal
MDA-MB-468 breast = system: MDA-MB-468 breast
SK-MEL-5 melanoma = system: SK-MEL-5 melanoma
ACHN renal = system: ACHN renal
MOLT-4 leukemia = system: MOLT-4 leukemia
SK-MEL-2 melanoma = system: SK-MEL-2 melanoma
HCT-116 colon = system: HCT-116 colon
IGROV1 ovarian = system: IGROV1 ovarian
HCC-2998 colon = system: HCC-2998 colon
SK-MEL-28 melanoma = system: SK-MEL-28 melanoma
TK-10 renal = system: TK-10 renal
CCRF-CEM leukemia = system: CCRF-CEM leukemia
UACC-257 melanoma = system: UACC-257 melanoma
UACC-62 melanoma = system: UACC-62 melanoma
HOP-62 NSCLC = system: HOP-62 NSCLC
M14 melanoma = system: M14 melanoma
NCI-H23 lung = system: NCI-H23 lung
LOX IMVI melanoma = system: LOX IMVI melanoma
UO-31 renal = system: UO-31 renal
SNB-19 CNS = system: SNB-19 CNS
RPMI-8226 leukemia = system: RPMI-8226 leukemia
A549 NSCLC = system: A549 NSCLC

What does the source list for COc1ccc2c(c1)c(-c1cc(N)n3nc(-c4c[nH]c5ccccc45)cc3n1)cn2C?
GI50 (SF-539 CNS): 1.63 µM; TGI (SF-539 CNS): 2.98 µM; GI50 (786-0 renal): 1.61 µM; TGI (786-0 renal): 3 µM; GI50 (SNB-75 CNS): 1.76 µM; TGI (SNB-75 CNS): 3.8 µM; GI50 (RXF 393 renal): 1.5 µM; TGI (RXF 393 renal): 2.9 µM; GI50 (NCI-H226 lung): 2.13 µM; TGI (NCI-H226 lung): 5.11 µM; GI50 (HT29 colon): 1.77 µM; TGI (HT29 colon): 3.47 µM; GI50 (MCF7 breast): 1.68 µM; TGI (MCF7 breast): 3.35 µM; GI50 (SR leukemia): 1.43 µM; TGI (SR leukemia): 6.4 µM; GI50 (SF-295 CNS): 1.58 µM; TGI (SF-295 CNS): 3.01 µM; GI50 (MDA-MB-435): 1.83 µM; TGI (MDA-MB-435): 3.54 µM; GI50 (COLO 205 colon): 2.02 µM; TGI (COLO 205 colon): 3.83 µM; GI50 (OVCAR-5 ovarian): 2.05 µM; TGI (OVCAR-5 ovarian): 4.08 µM; GI50 (OVCAR-3 ovarian): 2.02 µM; TGI (OVCAR-3 ovarian): 4.28 µM; GI50 (HOP-92 NSCLC): 1.87 µM; TGI (HOP-92 NSCLC): 3.86 µM; GI50 (NCI/ADR-RES ovarian): 2.08 µM; TGI (NCI/ADR-RES ovarian): 5.07 µM; GI50 (HL-60(TB) leukemia): 1.76 µM; TGI (HL-60(TB) leukemia): 3.78 µM; GI50 (NCI-H522 lung): 1.78 µM; TGI (NCI-H522 lung): 3.5 µM; GI50 (HS 578T breast): 3.11 µM; TGI (HS 578T breast): 17.6 µM; GI50 (HCT-15 colon): 1.31 µM; TGI (HCT-15 colon): 2.75 µM; GI50 (SF-268 CNS): 2.35 µM; TGI (SF-268 CNS): 5.48 µM; GI50 (MDA-MB-231 breast): 2.07 µM; TGI (MDA-MB-231 breast): 3.65 µM; GI50 (SK-OV-3 ovarian): 2.58 µM; TGI (SK-OV-3 ovarian): 6.43 µM; GI50 (U251 CNS): 1.64 µM; TGI (U251 CNS): 3.21 µM; GI50 (BT-549 breast): 12.8 µM; TGI (BT-549 breast): 25.6 µM; GI50 (PC-3 prostate): 2.56 µM; TGI (PC-3 prostate): 8.61 µM; GI50 (DU-145 prostate): 3.29 µM; TGI (DU-145 prostate): 10.2 µM; GI50 (CAKI-1 renal): 1.82 µM; TGI (CAKI-1 renal): 3.52 µM; GI50 (NCI-H460 lung): 2.23 µM; TGI (NCI-H460 lung): 5.03 µM; GI50 (OVCAR-8 ovarian): 2.05 µM; TGI (OVCAR-8 ovarian): 4.77 µM; GI50 (OVCAR-4 ovarian): 2.42 µM; TGI (OVCAR-4 ovarian): 5.93 µM; GI50 (EKVX NSCLC): 1.7 µM; TGI (EKVX NSCLC): 3.63 µM; GI50 (A498 renal): 14 µM; TGI (A498 renal): 27.6 µM; GI50 (MALME-3M melanoma): 1.79 µM; TGI (MALME-3M melanoma): 3.18 µM; GI50 (SN12C renal): 1.87 µM; TGI (SN12C renal): 3.81 µM; GI50 (MDA-MB-468 breast): 1.36 µM; TGI (MDA-MB-468 breast): 2.69 µM; GI50 (SK-MEL-5 melanoma): 1.68 µM; TGI (SK-MEL-5 melanoma): 3.04 µM; GI50 (ACHN renal): 1.7 µM; TGI (ACHN renal): 3.1 µM; GI50 (MOLT-4 leukemia): 2.05 µM; TGI (MOLT-4 leukemia): 5.73 µM; GI50 (SK-MEL-2 melanoma): 1.86 µM; TGI (SK-MEL-2 melanoma): 3.96 µM; GI50 (HCT-116 colon): 1.72 µM; TGI (HCT-116 colon): 3.09 µM; GI50 (IGROV1 ovarian): 2.03 µM; TGI (IGROV1 ovarian): 3.88 µM; GI50 (HCC-2998 colon): 1.63 µM; TGI (HCC-2998 colon): 3.04 µM; GI50 (SK-MEL-28 melanoma): 1.73 µM; TGI (SK-MEL-28 melanoma): 3.11 µM; GI50 (TK-10 renal): 1.76 µM; TGI (TK-10 renal): 3.34 µM; GI50 (CCRF-CEM leukemia): 2.14 µM; TGI (CCRF-CEM leukemia): 5.42 µM; GI50 (UACC-257 melanoma): 1.84 µM; TGI (UACC-257 melanoma): 3.43 µM; GI50 (UACC-62 melanoma): 1.8 µM; TGI (UACC-62 melanoma): 3.2 µM; GI50 (HOP-62 NSCLC): 2.02 µM; TGI (HOP-62 NSCLC): 3.92 µM; GI50 (M14 melanoma): 1.72 µM; TGI (M14 melanoma): 3.25 µM; GI50 (NCI-H23 lung): 1.72 µM; TGI (NCI-H23 lung): 3.39 µM; GI50 (LOX IMVI melanoma): 1.68 µM; TGI (LOX IMVI melanoma): 3.04 µM; GI50 (UO-31 renal): 1.61 µM; TGI (UO-31 renal): 3.12 µM; GI50 (SNB-19 CNS): 2.61 µM; TGI (SNB-19 CNS): 6.31 µM; GI50 (RPMI-8226 leukemia): 2.37 µM; TGI (RPMI-8226 leukemia): 5.74 µM; GI50 (A549 NSCLC): 1.86 µM; TGI (A549 NSCLC): 3.7 µM

Which GI50 (MDA-MB-468 breast) does the source give for COc1ccc(-c2c3c(nc4n[nH]c(-c5ccc(Cl)cc5)c24)-c2ccccc2C(=O)C3=O)cc1 here?
The GI50 was 1.65 µM.

And the TGI (MDA-MB-468 breast)?
Its TGI is 3.47 µM.

What does the source list for O=C1/C(=C/c2ccc(O)cc2)COc2ccc(O)c(O)c21?
GI50 (MDA-MB-468 breast): 1.99 µM; TGI (MDA-MB-468 breast): 5.69 µM

Which GI50 (MDA-MB-468 breast) does the source give for O=[N+]([O-])c1cc([N+](=O)[O-])c(Cl)cc1Cl here?
The GI50 was 1.66 µM.

And the TGI (MDA-MB-468 breast)?
The TGI was 3.38 µM.

For Cc1[nH]c2cc(F)ccc2c1-c1nc2c3cccnc3c3ncccc3c2[nH]1, which GI50 (MDA-MB-468 breast) is on record?
The GI50 was 0.0273 µM.

What about the TGI (MDA-MB-468 breast) of the same compound?
Its TGI is 0.0828 µM.

CCCCCCCCCCCCCC[n+]1ccc(C)cc1 was tested. Which GI50 (MDA-MB-468 breast) did it give?
The GI50 was 0.207 µM.

What about the TGI (MDA-MB-468 breast) of the same compound?
The TGI was 0.808 µM.

NC(=O)c1sc(-n2cnc3cc(C(F)(F)F)ccc32)cc1OCc1ccccc1Br was tested. Which GI50 (MDA-MB-468 breast) did it give?
Its GI50 is > 11.5 µM.

What about the TGI (MDA-MB-468 breast) of the same compound?
The TGI was > 23.4 µM.

O=C1c2cccnc2C(=O)c2c1c(C(=O)OCCCN1CCCCC1)c1ccccn21 was tested. Which GI50 (MDA-MB-468 breast) did it give?
The GI50 was 0.314 µM.

And the TGI (MDA-MB-468 breast)?
Its TGI is 14.5 µM.

With Cc1nc2sc(C(=O)c3ccc(Cl)cc3)c(N)c2c(-c2ccccc2Cl)c1C(=O)Nc1ccccc1 as the compound, how does the GI50 (MDA-MB-468 breast) read?
The GI50 was 17.5 µM.

And the TGI (MDA-MB-468 breast)?
Its TGI is 37 µM.

What does the source list for Cc1cc(O)c(C2=NN(c3ccc(S(N)(=O)=O)cc3)C(/C=C/c3ccccc3)C2)cc1Cl (stereo unspecified)?
GI50 (MDA-MB-468 breast): 3.94 µM; TGI (MDA-MB-468 breast): 13.8 µM

How did the GI50 (MDA-MB-468 breast) turn out when COc1cc(Cl)cc(-c2nn(-c3cccc(NC(=O)Nc4ccc(Cl)c(Cl)c4)c3)cc2-c2ccncc2)c1 was run?
The GI50 was 1.74 µM.

What about the TGI (MDA-MB-468 breast) of the same compound?
Its TGI is 7.37 µM.

With CC(C)(C)OC(=O)NCc1cccc(N=C=S)c1 as the compound, how does the GI50 (MDA-MB-468 breast) read?
Its GI50 is 14.8 µM.

What about the TGI (MDA-MB-468 breast) of the same compound?
Its TGI is 48.1 µM.

What does the source list for COc1ccc(C(=O)c2sc3nc(-c4cccs4)ccc3c2N)cc1OC?
GI50 (MDA-MB-468 breast): 1.87 µM; TGI (MDA-MB-468 breast): > 100 µM

How did the GI50 (MDA-MB-468 breast) turn out when CCCCNc1ccc(Nc2ccccc2)cc1 was run?
The GI50 was 1.81 µM.

What about the TGI (MDA-MB-468 breast) of the same compound?
The TGI was 9.42 µM.

From PubChem BioAssay (NCI)
